Experiment [1] has as its system saphenous artery rings. The experiment is described as follows: Vasorelaxant effect in vitro (phenylephrine-contracted artery rings). In kind it is cell-based. The settings on record: rabbit saphenous artery rings, contraction induced by phenylephrine. On the procedure: Rabbits are anesthetized and sacrificed by intravenous injection of thiopental sodium (about 50 mg/kg) and exsanguinated. The saphenous artery is removed and divided into rings 3 mm wide. The rings are mounted singly on in each case a pair of triangular hooks open at the end and made of 0.3 mm-thick special wire (Remanium®). Each ring is placed under an initial tension in 5 ml organ baths with Krebs-Henseleit solution which is at 37° C., is gassed with 95% O2/5% CO2 and has the following composition: NaCl 119 mM; KCl 4.8 mM; CaCl2×2H2O 1 mM; MgSO4×7 H2O 1.4 mM; KH2PO4 1.2 mM; NaHCO3 25 mM; glucose 10 mM; bovine serum albumin 0.001%. The force of contraction is detected with Statham UC2 cells, amplified and digitized via A/D converters (DAS-1802 HC, Keithley Instruments, Munich) and recorded in parallel on chart recorders. Contractions are induced by addition of phenylephrine.
After several (generally 4) control cycles, the substance to be investigated is added in each further run in increasing dosage, and the height of the contraction achieved under the influence of the test substance is compared with the height of the contraction reached in the last preceding run. The concentration necessary to reduce the contraction reached in the preceding control by 50% is calculated from this (IC50). The standard application volume is 5 μl. The proportion of DMSO in the bath solution corresponds to 0.1%.

Experiment [2] has as its target T1, Heme-containing sGC (recombinant soluble guanylate cyclase) (Rattus norvegicus, UniProt P20595).
T1 construct: made in house; host or cells: baculovirus/Sf9 insect cells
T1 sequence (P20595 1-619): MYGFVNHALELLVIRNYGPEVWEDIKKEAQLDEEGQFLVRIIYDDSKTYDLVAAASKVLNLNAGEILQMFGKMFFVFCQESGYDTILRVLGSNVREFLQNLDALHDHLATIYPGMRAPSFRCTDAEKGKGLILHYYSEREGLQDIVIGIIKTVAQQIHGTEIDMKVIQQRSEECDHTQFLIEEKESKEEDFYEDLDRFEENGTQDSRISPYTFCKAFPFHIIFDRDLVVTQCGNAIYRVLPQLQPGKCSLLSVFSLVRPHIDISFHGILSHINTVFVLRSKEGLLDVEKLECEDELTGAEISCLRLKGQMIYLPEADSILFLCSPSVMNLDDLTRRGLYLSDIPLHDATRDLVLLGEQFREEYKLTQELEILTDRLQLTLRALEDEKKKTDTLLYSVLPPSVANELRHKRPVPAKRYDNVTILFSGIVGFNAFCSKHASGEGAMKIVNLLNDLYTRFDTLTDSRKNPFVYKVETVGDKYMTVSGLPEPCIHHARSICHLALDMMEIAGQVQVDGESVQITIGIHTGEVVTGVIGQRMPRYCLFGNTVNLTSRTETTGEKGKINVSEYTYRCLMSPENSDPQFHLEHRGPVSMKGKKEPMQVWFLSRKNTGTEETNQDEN
T1 sequence (P19686 1-690 partner): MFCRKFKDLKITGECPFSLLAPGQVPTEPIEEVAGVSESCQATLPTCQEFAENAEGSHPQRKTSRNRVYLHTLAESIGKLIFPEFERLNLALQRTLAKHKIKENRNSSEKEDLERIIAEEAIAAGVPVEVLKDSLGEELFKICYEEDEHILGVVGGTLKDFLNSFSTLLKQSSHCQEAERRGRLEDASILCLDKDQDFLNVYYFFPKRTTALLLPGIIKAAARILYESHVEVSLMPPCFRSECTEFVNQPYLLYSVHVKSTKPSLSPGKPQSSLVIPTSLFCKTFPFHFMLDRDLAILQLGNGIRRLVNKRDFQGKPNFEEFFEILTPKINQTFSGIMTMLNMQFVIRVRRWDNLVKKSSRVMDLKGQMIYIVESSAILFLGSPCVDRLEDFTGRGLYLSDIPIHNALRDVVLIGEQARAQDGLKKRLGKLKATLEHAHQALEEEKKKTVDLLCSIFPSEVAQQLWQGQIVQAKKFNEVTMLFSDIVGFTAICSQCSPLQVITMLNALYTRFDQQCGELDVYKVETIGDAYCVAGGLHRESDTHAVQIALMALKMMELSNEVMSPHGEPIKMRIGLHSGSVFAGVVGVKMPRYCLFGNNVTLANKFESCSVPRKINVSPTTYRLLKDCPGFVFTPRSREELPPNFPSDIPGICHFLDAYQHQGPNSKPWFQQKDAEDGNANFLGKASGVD
In words: Stimulation of recombinant soluble guanylate cyclase (sGC) in vitro, heme-containing enzyme. Type of experiment: biochemical. An excerpt:
Hoenicka, E. M. Becker, H. Apeler, T. Sirichoke, H. Schroeder, R. Gerzer and J.-P. Stasch, “Purified soluble guanylyl cyclase expressed in a baculovirus/Sf9 system: Stimulation by YC-1, nitric oxide, and carbon oxide”, J. Mol. Med. 77 (1999), 14-23. The heme-free guanylate cyclase is obtained by adding Tween 20 to the sample buffer (0.5% in the final concentration).
(§1) The activation of sGC by a test substance is reported as n-fold stimulation of the basal activity.

For experiment [3], the target named is T2, Heme-free sGC (recombinant soluble guanylate cyclase) (Rattus norvegicus, UniProt P20595).
T2 construct: made in house; host or cells: baculovirus/Sf9 insect cells
T2 sequence (P20595 1-619): T1 sequence (P20595 1-619)
T2 sequence (P19686 1-690 partner): T1 sequence (P19686 1-690 partner)
The experiment is described as follows: Stimulation of recombinant soluble guanylate cyclase (sGC) in vitro, heme-free enzyme. Type of experiment: biochemical. On the procedure: Investigations on the stimulation of recombinant soluble guanylate cyclase (sGC) by the compounds according to the invention with and without sodium nitroprusside, and with and without the heme-dependent sGC inhibitor 1H-1,2,4-oxadiazole-(4,3a)-quinoxalin-1-one (ODQ) are carried out by the method described in detail in the following reference: M. Hoenicka, E. M. Becker, H. Apeler, T. Sirichoke, H. Schroeder, R. Gerzer and J.-P. Stasch, “Purified soluble guanylyl cyclase expressed in a baculovirus/Sf9 system: Stimulation by YC-1, nitric oxide, and […]”, J. Mol. Med. 77 (1999), 14-23. The heme-free guanylate cyclase is obtained by adding Tween 20 to the sample buffer (0.5% in the final concentration).
as §1

Where [4] appears, read: 0.001 μM Example 13 + 10 μM ODQ.

The results in this text go back to US8173704B2, “Difluorophenol derivatives and their use” (Bayer Pharma Aktiengesellschaft, priority 2005, dated 2012).

Consider `O=C(O)CCCCC(/C=C/c1cc(F)ccc1OCc1ccc(-c2ccc(C(F)(F)F)cc2)cc1)Cc1cc(F)c(O)c(F)c1` (single isomer, unassigned) [Example 4, E-6-(3,5-Difluoro-4-hydroxybenzyl)-8-[5-fluoro-2-(4′-trifluoromethylbiphenyl-4-ylmethoxy)phenyl]oct-7-enoic acid], for which, in experiment [1], the IC50 stood at 0.96 µM. This counts as sub-micromolar.
On the same count and under the same terms, with `CC(C)(C)c1ccc(COc2ccccc2/C=C/C(CCc2ccc(C(=O)O)cc2)Cc2cc(F)c(O)c(F)c2)cc1` (single isomer, unassigned) [Example 14, E-4-[5-[2-(4-tert-Butylbenzyloxy)phenyl]-3-(3,5-difluoro-4-hydroxybenzyl)pent-4-enyl]benzoic acid] the figure was 1.22 µM.
`O=C(O)CCCCC(/C=C/c1cc(F)ccc1OCc1ccc(-c2ccc(C(F)(F)F)cc2)cc1)Cc1cc(F)c(O)c(F)c1` (single isomer, unassigned) [Example 5, E-6-(3,5-Difluoro-4-hydroxybenzyl)-8-[5-fluoro-2-(4′-trifluoromethylbiphenyl-4-ylmethoxy)phenyl]oct-7-enoic acid]: the midpoint of inhibition in experiment [1], the IC50, lay at 0.3 µM.
For `O=C(O)CCCCC(/C=C/c1cc(F)ccc1OCc1ccccc1Cl)Cc1cc(F)c(O)c(F)c1` (single isomer, unassigned) [Example 8, E-8-[2-(2-Chlorobenzyloxy)-5-fluorophenyl]-6-(3,5-difluoro-4-hydroxybenzyl)oct-7-enoic acid], the IC50 in experiment [1] (Oryctolagus cuniculus) amounted to 0.647 µM.
Regarding `O=C(O)CCCCC(/C=C\c1cc(F)ccc1OCc1ccc(-c2ccc(C(F)(F)F)cc2)cc1)Cc1cc(F)c(O)c(F)c1` (single isomer, unassigned) [Example 6, Z-6-(3,5-Difluoro-4-hydroxybenzyl)-8-[5-fluoro-2-(4′-trifluoromethylbiphenyl-4-ylmethoxy)phenyl]oct-7-enoic acid], the IC50 in experiment [1] (Oryctolagus cuniculus) was found to be 2.7 µM.
`O=C(O)CCCCN(CCc1cc(F)ccc1OCc1ccc(-c2ccc(C(F)(F)F)cc2)cc1)Cc1cc(F)c(O)c(F)c1` [Example 18, 5-{(3,5-Difluoro-4-hydroxybenzyl)-[2-(5-fluoro-2-{[4′-(trifluoromethyl)biphenyl-4-yl]methoxy}phenyl)ethyl]amino}pentanoic acid] yielded an IC50 in experiment [1] (Oryctolagus cuniculus) of 0.043 µM. Compared with the last molecule, the IC50 is about 63-fold lower.
In experiment [1], `O=C(O)CCCCC(/C=C\c1cc(F)ccc1OCc1ccc(-c2ccc(C(F)(F)F)cc2)cc1)Cc1cc(F)c(O)c(F)c1` (single isomer, unassigned) [Example 7, Z-6-(3,5-Difluoro-4-hydroxybenzyl)-8-[5-fluoro-2-(4′-trifluoromethylbiphenyl-4-ylmethoxy)phenyl]oct-7-enoic acid] returned an IC50 of 2.6 µM.
`CC(C)(C)c1ccc(COc2ccccc2/C=C/C(CCc2ccc(C(=O)O)cc2)Cc2cc(F)c(O)c(F)c2)cc1` (single isomer, unassigned) [Example 13, E4-[5-[2-(4-tert-Butylbenzyloxy)phenyl]-3-(3,5-difluoro-4-hydroxybenzyl)pent-4-enyl]benzoic acid]: the “Stimulation (n-fold) of heme-containing sGC, Basal” value in experiment [2] (0.001 μM Example 13) is recorded as 1.7 n-fold; in experiment [2] (0.01 μM Example 13) it was 6.7 n-fold; in experiment [2] (0.1 μM Example 13), 19.2 n-fold; in experiment [2] (1 μM Example 13) it was 24.2 n-fold; in experiment [2] (10 μM Example 13) it was 36.2 n-fold. For the same molecule, the “Stimulation (n-fold) of heme-containing sGC, +0.1 μM DEA/NO” value in experiment [2] (0.001 μM Example 13 + 0.1 μM DEA/NO) was found to be 26.3 n-fold; in experiment [2] (0.01 μM Example 13 + 0.1 μM DEA/NO), 31.2 n-fold; in experiment [2] (0.1 μM Example 13 + 0.1 μM DEA/NO), 40.2 n-fold; in experiment [2] (1 μM Example 13 + 0.1 μM DEA/NO), 43.2 n-fold; in experiment [2] (10 μM Example 13 + 0.1 μM DEA/NO), 62.0 n-fold. The “Stimulation (n-fold) of heme-containing sGC, +10 μM ODQ” value in experiment [2] (setting [4]) is recorded as 37.5 n-fold; in experiment [2] (0.01 μM Example 13 + 10 μM ODQ), 38.8 n-fold; in experiment [2] (0.1 μM Example 13 + 10 μM ODQ), 43.8 n-fold; in experiment [2] (1 μM Example 13 + 10 μM ODQ), 52.2 n-fold; in experiment [2] (10 μM Example 13 + 10 μM ODQ), 63.7 n-fold. In addition, the “Effect of combination with the NO donor DEA/NO on sGC stimulation” value in experiment [2] (combination with DEA/NO) is on record as “no synergistic effect”. Besides, the “Effect of the heme-dependent sGC inhibitor ODQ on the sGC activation” value in experiment [2] (with ODQ, effect is in fact increased) was “not blocked”. Also, in experiment [1], half-maximal inhibition (IC50) was put at 0.0245 µM. In addition, the “Stimulation (n-fold) of heme-free sGC, Basal” value came out at 4.1 n-fold in experiment [3] (0.001 μM Example 13); 30.6 n-fold in experiment [3] (0.01 μM Example 13); 94.4 n-fold in experiment [3] (0.1 μM Example 13); 122.8 n-fold in experiment [3] (1 μM Example 13); 126.3 n-fold in experiment [3] (10 μM Example 13). Moreover, the “Stimulation (n-fold) of heme-free sGC, +10 μM ODQ” value is given as 4.0 n-fold in experiment [3] (setting [4]); 27.1 n-fold in experiment [3] (0.01 μM Example 13 + 10 μM ODQ); 88.6 n-fold in experiment [3] (0.1 μM Example 13 + 10 μM ODQ); 118.5 n-fold in experiment [3] (1 μM Example 13 + 10 μM ODQ); 118.4 n-fold in experiment [3] (10 μM Example 13 + 10 μM ODQ).
